Drawing on EP4596561A1, “PHOSPHORUS-CONTAINING COMPOUND, PHARMACEUTICAL COMPOSITION AND USE THEREOF” (Suzhou Genhouse Bio Co., Ltd., priority 2022, dated 2024), this text covers IC50 for eight compounds.

A value given as a limit tells only on which side of the number the result lay.

The target in assay [1] is T1, Cytochrome Oxidase P450 3A4-M (Homo sapiens, UniProt P08684).
T1 construct: a biochemical reaction of prepared liver microsomes supplemented with a redox coenzyme; from tissue; host or cells: liver microsomes
T1 sequence (P08684 whole entry): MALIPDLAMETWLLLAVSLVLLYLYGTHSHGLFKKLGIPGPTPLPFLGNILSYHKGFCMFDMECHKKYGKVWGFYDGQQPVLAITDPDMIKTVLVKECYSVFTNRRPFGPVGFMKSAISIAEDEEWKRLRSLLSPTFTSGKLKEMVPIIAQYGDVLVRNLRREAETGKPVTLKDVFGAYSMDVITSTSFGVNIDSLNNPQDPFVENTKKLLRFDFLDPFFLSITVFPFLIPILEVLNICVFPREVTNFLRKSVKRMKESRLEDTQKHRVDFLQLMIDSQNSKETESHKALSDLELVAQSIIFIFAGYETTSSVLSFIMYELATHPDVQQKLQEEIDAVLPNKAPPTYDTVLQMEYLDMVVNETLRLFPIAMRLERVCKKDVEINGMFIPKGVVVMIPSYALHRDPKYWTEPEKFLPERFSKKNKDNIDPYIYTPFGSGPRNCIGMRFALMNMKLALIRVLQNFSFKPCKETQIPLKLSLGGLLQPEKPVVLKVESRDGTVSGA
As to the kind of experiment: Inhibition of cytochrome oxidase P450. Format: in vitro ADME. The following applies: liver microsomes. As to the method:
(§1) Efficacy Experimental Example 5: Inhibition of Cytochrome Oxidase P450
(§2) 100 mM K-Buffer: 9.5 mL of stock solution A was mixed with 40.5 mL of stock solution B, the total volume was adjusted to […] with ultrapure water, and the buffer was titrated to pH 7.4 with KOH or H3PO4.
(§3) The test substance powder was prepared into a stock solution at a certain concentration with DMSO or another organic solvent, which was then further diluted with a suitable organic solvent.
(§4) The liver microsomal in vitro incubation system for the CYP450 enzyme metabolism phenotype study was a biochemical reaction of prepared liver microsomes supplemented with a redox coenzyme and an enzyme-specific selective inhibitor under simulated physiological temperature and environment conditions.
(§5) The concentration of the parent drug or a metabolite thereof in the incubation solution was determined by LC-MS/MS.

In assay [2] the target is T2, Cytochrome Oxidase P450 1A2 (Homo sapiens, UniProt P05177).
T2 construct: a biochemical reaction of prepared liver microsomes supplemented with a redox coenzyme; from tissue; host or cells: liver microsomes
T2 sequence (P05177 1-516): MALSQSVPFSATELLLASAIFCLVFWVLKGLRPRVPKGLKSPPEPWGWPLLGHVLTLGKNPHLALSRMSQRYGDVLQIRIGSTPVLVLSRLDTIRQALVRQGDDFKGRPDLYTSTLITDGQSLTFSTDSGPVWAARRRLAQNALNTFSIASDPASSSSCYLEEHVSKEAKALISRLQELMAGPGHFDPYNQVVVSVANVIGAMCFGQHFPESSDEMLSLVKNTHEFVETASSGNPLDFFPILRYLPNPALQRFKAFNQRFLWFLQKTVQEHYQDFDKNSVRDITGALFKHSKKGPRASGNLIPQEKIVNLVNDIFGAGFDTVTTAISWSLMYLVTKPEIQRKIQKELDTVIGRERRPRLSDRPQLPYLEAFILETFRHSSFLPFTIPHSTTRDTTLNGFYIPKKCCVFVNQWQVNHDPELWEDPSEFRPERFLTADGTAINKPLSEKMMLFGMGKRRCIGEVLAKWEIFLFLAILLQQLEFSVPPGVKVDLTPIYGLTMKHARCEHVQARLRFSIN
As to the kind of experiment: Inhibition of cytochrome oxidase P450. Format: in vitro ADME. The following applies: liver microsomes. As to the method: as §1, §2, §3, §4, §5

In assay [3] the target is T3, Cytochrome Oxidase P450 2C19 (Homo sapiens, UniProt P33261).
T3 construct: a biochemical reaction of prepared liver microsomes supplemented with a redox coenzyme; from tissue; host or cells: liver microsomes
T3 sequence (P33261 whole entry): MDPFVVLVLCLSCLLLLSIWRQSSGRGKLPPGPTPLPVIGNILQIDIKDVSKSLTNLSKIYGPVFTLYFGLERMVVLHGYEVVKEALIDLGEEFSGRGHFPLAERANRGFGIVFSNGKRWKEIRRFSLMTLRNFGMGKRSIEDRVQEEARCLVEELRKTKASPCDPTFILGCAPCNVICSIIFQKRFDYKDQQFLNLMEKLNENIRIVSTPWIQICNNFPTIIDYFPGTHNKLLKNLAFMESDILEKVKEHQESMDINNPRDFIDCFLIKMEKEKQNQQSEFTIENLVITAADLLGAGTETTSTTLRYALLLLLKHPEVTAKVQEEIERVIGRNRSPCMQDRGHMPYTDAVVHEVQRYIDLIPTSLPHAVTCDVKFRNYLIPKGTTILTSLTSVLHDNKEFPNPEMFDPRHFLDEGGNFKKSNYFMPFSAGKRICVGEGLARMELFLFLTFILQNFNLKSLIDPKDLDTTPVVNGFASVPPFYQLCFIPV
The assay is described as follows: Inhibition of cytochrome oxidase P450. Format: in vitro ADME. The settings on record: liver microsomes. As to the method: as §1, §2, §3, §4, §5

Assay [4] has as its target T4, Cytochrome Oxidase P450 2C9 (Homo sapiens, UniProt P11712).
T4 construct: a biochemical reaction of prepared liver microsomes supplemented with a redox coenzyme; from tissue; host or cells: liver microsomes
As to the kind of experiment: Inhibition of cytochrome oxidase P450. The following applies: liver microsomes. Format: in vitro ADME. As to the method:
as §1, §2, §3, §4, §5

The subject of assay [5] is MSTO-211H (NF2 wide-type). As to the kind of experiment: Inhibition of cell proliferation (CellTiter-Lumi). Format: cell-based. The settings on record: Homo sapiens, 72 h + another 72 h treatment. As to the method: NCI-H2052 (NF2 mutant), NCI-H226 (NF2 mutant), NCI-H2452 (NF2 wide-type), NCI-H28 (NF2 wide-type), and MSTO-211H (NF2 wide-type) cells were cultured in RPMI 1640 complete media.
The normally growing cells described above were digested with a trypsin cell-digesting solution, centrifuged, counted, and then plated in a 96-well plate at a density of 1000 cells per well. Administration was performed 24 h after the cell plating. Inhibitors at different concentration gradients were added at 10 µL per well, and three replicate wells were set for each concentration point. The starting concentration was 20 µM and diluted 8 times with a 4-fold gradient. A corresponding negative control group treated with 0.1% DMSO was also set up. After 72 h of drug treatment, the cell culture plate to be tested was taken out of the incubator. The culture medium in the 96-well plate was pipetted, and 190 µL of fresh RPMI 1640 complete medium was added. Another administration was performed, and the cells were cultured for another 72 h. The 96-well plate was taken out and allowed to equilibrate at room temperature for 10 min. The medium in the 96-well plate was pipetted, and 200 µL of CellTiter-Lumi™ luminescent cell viability detection solution (mixed with a medium in a ratio of 1:1) was added. After shaking for two minutes, the mixture was reacted at room temperature for 10 min. Then, 150 µL of liquid was pipetted from the transparent 96-well plate and transferred to a white 96-well plate for chemiluminescence reading. The background value was subtracted from the value for each well to calculate the cell survival rate. Survival rate (%) = […]. Sample is the chemiluminescence of the drug-treated group, and Vehicle is the […] of the DMSO control group. A sigmoidal dose-survival rate curve was plotted using a non-linear regression model in the GraphPad Prism 7.0 software, and the IC50 values or GI50 values were calculated.

T4 sequence (P11712 whole entry): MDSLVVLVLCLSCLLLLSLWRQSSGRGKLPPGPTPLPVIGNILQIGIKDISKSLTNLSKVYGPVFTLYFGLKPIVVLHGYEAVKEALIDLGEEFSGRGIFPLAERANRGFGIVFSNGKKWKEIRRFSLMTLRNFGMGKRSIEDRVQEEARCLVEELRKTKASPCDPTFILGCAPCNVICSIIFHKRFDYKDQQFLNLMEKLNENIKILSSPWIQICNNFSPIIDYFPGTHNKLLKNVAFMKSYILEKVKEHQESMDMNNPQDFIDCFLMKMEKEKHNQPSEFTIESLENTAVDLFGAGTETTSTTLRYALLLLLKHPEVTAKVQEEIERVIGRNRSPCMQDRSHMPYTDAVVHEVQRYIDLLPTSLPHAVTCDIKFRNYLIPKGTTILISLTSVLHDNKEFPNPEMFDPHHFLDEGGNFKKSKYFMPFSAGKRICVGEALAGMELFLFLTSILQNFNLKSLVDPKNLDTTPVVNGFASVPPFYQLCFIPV

Consider `CP(C)(=O)c1ccc2c(c1)c1ccccc1n2-c1ccc(C(F)(F)F)cc1` [Example 1], for which the IC50 in assay [1], in assay [2], in assay [3] and in assay [4] was over 10 µM throughout.
As for `CP(C)(=O)c1ccc2c(c1)c1cccnc1n2-c1ccc(C(F)(F)F)cc1` [Example 5], the IC50 in assay [5] was over 5 µM.
On to `CP(C)(=O)c1ccc2c(Oc3ccc(C(F)(F)F)cc3)cccc2c1` [Example 7], for which the IC50 in assay [1], in assay [2], in assay [3] and in assay [4] was over 10 µM each time.
Regarding `Cn1cnc(-c2cc(P(C)(C)=O)cnc2Nc2ccc(C(F)(F)F)cc2)c1` [Example 8], the IC50 in assay [1], in assay [2], in assay [3] and in assay [4] was over 10 µM in each case.
As for `CP(C)(=O)c1ccc(Nc2ccc(C(F)(F)F)cc2)c(-c2ccccn2)c1` [Example 10], the IC50 in assay [5] is over 1.25 µM.
As to `CP(C)(=O)c1ccc(Nc2ccc(C(F)(F)F)cc2)c(-c2ncccn2)c1` [Example 12], in assay [5], the IC50 is over 20 µM.
On to `Cn1cnc(-c2cc(P(C)(C)=O)ccc2Nc2ccc(C(F)(F)F)cc2)c1` [Example 14], for which the IC50 in assay [1], in assay [2], in assay [3] and in assay [4] was over 10 µM in each case.
In the case of `CP(C)(=O)c1cnc(Nc2ccc(C(F)(F)F)cc2)c(-c2cn3c(n2)CCC3)c1` [Example 22], the IC50 in assay [1], in assay [2], in assay [3] and in assay [4] was over 10 µM in each case.
